Results from PubChem BioAssay (NCI).
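Tested at 5 concentrations; 48 h exposure; 96-well plates; endpoints linearly interpolated, else capped at highest concentration. GI50 is the concentration that inhibits growth by half. The concentration for full growth arrest is given as TGI.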

Columns and labels:
Experiment in all cases: NCI anticancer screen, dose series, 48 h
M14 melanoma = test system: M14 melanoma
KM12 colon = test system: KM12 colon
OVCAR-4 ovarian = test system: OVCAR-4 ovarian
UO-31 renal = test system: UO-31 renal
UACC-62 melanoma = test system: UACC-62 melanoma
OVCAR-5 ovarian = test system: OVCAR-5 ovarian
NCI-H460 lung = test system: NCI-H460 lung
ACHN renal = test system: ACHN renal
SF-539 CNS = test system: SF-539 CNS
SN12C renal = test system: SN12C renal
MDA-MB-435 = test system: MDA-MB-435
SK-OV-3 ovarian = test system: SK-OV-3 ovarian
HCT-15 colon = test system: HCT-15 colon
IGROV1 ovarian = test system: IGROV1 ovarian
RXF 393 renal = test system: RXF 393 renal
RPMI-8226 leukemia = test system: RPMI-8226 leukemia
SK-MEL-28 melanoma = test system: SK-MEL-28 melanoma
HS 578T breast = test system: HS 578T breast
UACC-257 melanoma = test system: UACC-257 melanoma
SK-MEL-5 melanoma = test system: SK-MEL-5 melanoma
SK-MEL-2 melanoma = test system: SK-MEL-2 melanoma
HOP-62 NSCLC = test system: HOP-62 NSCLC
EKVX NSCLC = test system: EKVX NSCLC
A549 NSCLC = test system: A549 NSCLC
HL-60(TB) leukemia = test system: HL-60(TB) leukemia
HCT-116 colon = test system: HCT-116 colon
HT29 colon = test system: HT29 colon
NCI-H522 lung = test system: NCI-H522 lung
U251 CNS = test system: U251 CNS
BT-549 breast = test system: BT-549 breast
A498 renal = test system: A498 renal
DU-145 prostate = test system: DU-145 prostate
PC-3 prostate = test system: PC-3 prostate
SNB-19 CNS = test system: SNB-19 CNS
SF-268 CNS = test system: SF-268 CNS
SF-295 CNS = test system: SF-295 CNS
NCI/ADR-RES ovarian = test system: NCI/ADR-RES ovarian
TK-10 renal = test system: TK-10 renal
OVCAR-3 ovarian = test system: OVCAR-3 ovarian
NCI-H23 lung = test system: NCI-H23 lung
NCI-H226 lung = test system: NCI-H226 lung
CCRF-CEM leukemia = test system: CCRF-CEM leukemia
SW-620 colon = test system: SW-620 colon
HOP-92 NSCLC = test system: HOP-92 NSCLC
MALME-3M melanoma = test system: MALME-3M melanoma
HCC-2998 colon = test system: HCC-2998 colon
SNB-75 CNS = test system: SNB-75 CNS
786-0 renal = test system: 786-0 renal
MDA-MB-231 breast = test system: MDA-MB-231 breast
CAKI-1 renal = test system: CAKI-1 renal

With `Cn1cc(-c2csc(-c3c[nH]c4ccccc34)n2)c2cnccc21` the GI50 (M14 melanoma) was 1.84 µM, the TGI (M14 melanoma) was 3.46 µM and the GI50 (KM12 colon) was 1.65 µM. For the same molecule, the TGI (KM12 colon) was 3.41 µM, the GI50 (OVCAR-4 ovarian) was 2.3 µM and the TGI (OVCAR-4 ovarian) was 6.52 µM. It also gave a GI50 (UO-31 renal) of 1.64 µM, a TGI (UO-31 renal) of 3.35 µM and a GI50 (UACC-62 melanoma) of 1.82 µM. It also gave a TGI (UACC-62 melanoma) of 3.32 µM, a GI50 (OVCAR-5 ovarian) of 2.62 µM and a TGI (OVCAR-5 ovarian) of 5.52 µM. The GI50 (NCI-H460 lung) was 1.85 µM, the TGI (NCI-H460 lung) was 3.61 µM and the GI50 (ACHN renal) was 1.93 µM. The TGI (ACHN renal) was 3.77 µM, the GI50 (SF-539 CNS) was 1.79 µM and the TGI (SF-539 CNS) was 3.29 µM. The GI50 (SN12C renal) was 1.74 µM, the TGI (SN12C renal) was 3.31 µM and the GI50 (MDA-MB-435) was 1.87 µM. It also gave a TGI (MDA-MB-435) of 3.43 µM, a GI50 (SK-OV-3 ovarian) of 1.9 µM and a TGI (SK-OV-3 ovarian) of 3.72 µM. The GI50 (HCT-15 colon) was 1.79 µM, the TGI (HCT-15 colon) was 3.6 µM and the GI50 (IGROV1 ovarian) was 1.73 µM. The TGI (IGROV1 ovarian) was 3.55 µM, the GI50 (RXF 393 renal) was 1.63 µM and the TGI (RXF 393 renal) was 3.11 µM. For the same molecule, the GI50 (RPMI-8226 leukemia) was 2.14 µM, the TGI (RPMI-8226 leukemia) was 5 µM and the GI50 (SK-MEL-28 melanoma) was 1.8 µM. It also gave a TGI (SK-MEL-28 melanoma) of 3.25 µM, a GI50 (HS 578T breast) of 2.21 µM and a TGI (HS 578T breast) of 4.72 µM. The GI50 (UACC-257 melanoma) was 2 µM, the TGI (UACC-257 melanoma) was 3.72 µM and the GI50 (SK-MEL-5 melanoma) was 1.76 µM. The TGI (SK-MEL-5 melanoma) was 3.18 µM, the GI50 (SK-MEL-2 melanoma) was 2.1 µM and the TGI (SK-MEL-2 melanoma) was 3.81 µM. For the same molecule, the GI50 (HOP-62 NSCLC) was 1.79 µM, the TGI (HOP-62 NSCLC) was 3.45 µM and the GI50 (EKVX NSCLC) was 1.92 µM. It also gave a TGI (EKVX NSCLC) of 4.61 µM, a GI50 (A549 NSCLC) of 2.47 µM and a TGI (A549 NSCLC) of 5.88 µM. The GI50 (HL-60(TB) leukemia) was 2.17 µM, the TGI (HL-60(TB) leukemia) was 4.77 µM and the GI50 (HCT-116 colon) was 1.73 µM. For the same molecule, the TGI (HCT-116 colon) was 3.22 µM, the GI50 (HT29 colon) was 2.01 µM and the TGI (HT29 colon) was 4.26 µM. It also gave a GI50 (NCI-H522 lung) of 2.02 µM, a TGI (NCI-H522 lung) of 3.91 µM and a GI50 (U251 CNS) of 1.95 µM. For the same molecule, the TGI (U251 CNS) was 3.72 µM, the GI50 (BT-549 breast) was 1.78 µM and the TGI (BT-549 breast) was 3.59 µM. It also gave a GI50 (A498 renal) of 1.89 µM, a TGI (A498 renal) of 3.58 µM and a GI50 (DU-145 prostate) of 2.24 µM. The TGI (DU-145 prostate) was 5.65 µM, the GI50 (PC-3 prostate) was 2.4 µM and the TGI (PC-3 prostate) was 6.31 µM. The GI50 (SNB-19 CNS) was 2.07 µM, the TGI (SNB-19 CNS) was 4.11 µM and the GI50 (SF-268 CNS) was 1.97 µM. The TGI (SF-268 CNS) was 3.93 µM, the GI50 (SF-295 CNS) was 1.81 µM and the TGI (SF-295 CNS) was 3.37 µM. For the same molecule, the GI50 (NCI/ADR-RES ovarian) was 2.4 µM, the TGI (NCI/ADR-RES ovarian) was 5.44 µM and the GI50 (TK-10 renal) was 2.74 µM. The TGI (TK-10 renal) was 5.1 µM, the GI50 (OVCAR-3 ovarian) was 1.96 µM and the TGI (OVCAR-3 ovarian) was 3.56 µM. For the same molecule, the GI50 (NCI-H23 lung) was 1.77 µM, the TGI (NCI-H23 lung) was 3.97 µM and the GI50 (NCI-H226 lung) was 17.1 µM. The TGI (NCI-H226 lung) was 45.4 µM, the GI50 (CCRF-CEM leukemia) was 2.4 µM and the TGI (CCRF-CEM leukemia) was 6.42 µM. The GI50 (SW-620 colon) was 1.98 µM, the TGI (SW-620 colon) was 3.69 µM and the GI50 (HOP-92 NSCLC) was 1.52 µM. It also gave a TGI (HOP-92 NSCLC) of 3.28 µM, a GI50 (MALME-3M melanoma) of 1.94 µM and a TGI (MALME-3M melanoma) of 3.62 µM. The GI50 (HCC-2998 colon) was 2.01 µM, the TGI (HCC-2998 colon) was 3.61 µM and the GI50 (SNB-75 CNS) was 12.9 µM. It also gave a TGI (SNB-75 CNS) of 26.2 µM, a GI50 (786-0 renal) of 1.9 µM and a TGI (786-0 renal) of 3.44 µM. It also gave a GI50 (MDA-MB-231 breast) of 1.67 µM, a TGI (MDA-MB-231 breast) of 3.22 µM and a GI50 (CAKI-1 renal) of 2.08 µM. The TGI (CAKI-1 renal) was 4.71 µM.
